Laboratory results taken from US20140170208A1, “TRANSDERMAL PATCH FORMULATION” (LABTEC GMBH, priority 2009, published 2014).
Like-named read-outs stand apart in the source and are kept apart here.

Key:
[1] = Source text: Pilot Test Regarding the Solubility of Rasagiline Base in Non-Volatile Solvents for Use in a TDS
1.1 Solubility of Rasagiline Base

[2] = remark: listed apart in the source
Description: 1.5 Further Solubility Experiments Using IPM and “Silicone Oil 1000”
1.7 Concentrating of Rasagiline in IPM
2.2 Solubility of Rasagiline in Polidocanol
Experiment 3.8: Rasagiline Solubility in a Plastoid Bneutral Oil Solution
• 50 mg rasagiline WE 8596 in 300 mg Plastoid B-solution from exp.

[3] = remark: listed apart in the source
Description: Rasagiline base (50 mg) was dissolved in the presented solvents (0.14 g) and the placed into an over at 70° C. to monitor its loss.

[4] = ca. 20-25 mg in 0.5 g or mL, ca. 1:20 mixture
[5] = ca. 20-25 mg in 1.0 g or mL, ca. 1:40 mixture

Solubility of rasagiline base in Cremophor EL [1, 4]: Nearly completely | Solubility of rasagiline base in Glycerol anhydrous [1, 4]: Not Solubilised | Solubility of rasagiline base in Isopropyl myristate (IPM) [1, 4]: Solubilised | Solubility of rasagiline base in PEG 400 [1, 4]: Solubilised | Solubility of rasagiline base in Polysorbat 80 [1, 4]: Solubilised | Solubility of rasagiline base in Propylenglycol [1, 4]: Solubilised | Solubility of rasagiline base in Silicone oil 1000 [1, 4]: Not Solubilised | Solubility of rasagiline base in Vitamin-E-acetate [1, 4]: Nearly completely | Solubility of rasagiline base in paraffine, viscous [1, 4]: Not Solubilised | Solubility of rasagiline base in Cremophor EL [1, 5]: Solubilised | Solubility of rasagiline base in Glycerol anhydrous [1, 5]: Not completely solubilised, | Solubility of rasagiline base in Isopropyl myristate (IPM) [1, 5]: Solubilised | Solubility of rasagiline base in PEG 400 [1, 5]: Solubilised | Solubility of rasagiline base in Polysorbat 80 [1, 5]: Solubilised | Solubility of rasagiline base in Propylenglycol [1, 5]: Solubilised | Solubility of rasagiline base in Silicone oil 1000 [1, 5]: Solubilised | Solubility of rasagiline base in Vitamin-E-acetate [1, 5]: Solubilised | Solubility of rasagiline base in paraffine, viscous [1, 5]: Solubilised | Rasagiline solubility in a Plastoid B neutral oil solution [2]: dissolved | Solubility in silicone oil 1000 [2]: 25-30 mg/g silicone oil 1000 | Solubility of rasagiline in polidocanol [2]: completely soluble | Loss of rasagiline substance after removal of solvent by drying (FIG. 3) ([3]; 50 mg in 0.14 g pure water, oven at 70° C.): significant sublimation | Sublimation of rasagiline base at 60-70° C. ([3]; melted in beaker glass at 60-70° C., covered with ice-cold watch glass): re-sublimates
Compound: C#CCN[C@@H]1CCc2ccccc21 [rasagiline base, rasagiline]
